Our source for the IC50 values is patent publication US9708316B2 (BRISTOL-MYERS SQUIBB COMPANY, priority 2014, dated 2017).

Where two headings read alike, the source gives them in different places.

For one test, the target named is T1, HIS-TGFβR1 T204D (Homo sapiens, UniProt P36897, T204D).
T1 sequence (P36897 34-503 T204D): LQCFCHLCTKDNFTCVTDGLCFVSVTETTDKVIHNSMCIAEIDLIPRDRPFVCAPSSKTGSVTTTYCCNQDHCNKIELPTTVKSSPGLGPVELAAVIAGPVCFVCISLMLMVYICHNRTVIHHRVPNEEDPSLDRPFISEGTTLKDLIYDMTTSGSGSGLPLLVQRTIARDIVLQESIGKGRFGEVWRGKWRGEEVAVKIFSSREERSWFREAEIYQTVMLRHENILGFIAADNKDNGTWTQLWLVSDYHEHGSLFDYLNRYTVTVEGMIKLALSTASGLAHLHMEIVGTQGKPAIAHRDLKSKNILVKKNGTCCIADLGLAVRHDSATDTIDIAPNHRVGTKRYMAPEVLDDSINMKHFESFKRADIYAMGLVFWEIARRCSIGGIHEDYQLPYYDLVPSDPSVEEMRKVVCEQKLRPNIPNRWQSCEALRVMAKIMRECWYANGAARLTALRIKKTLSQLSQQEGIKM
The test can be described thus: HTRF probe-displacement assay, HIS-TGFβR1 T204D. The test is classed as binding. On the technique in general: TR-FRET usually uses a lanthanide donor and a delayed reading to cut background.

The next test concerns the target HIS-TGFβR2 WT (Homo sapiens, UniProt P37173). Briefly: HTRF probe-displacement assay, HIS-TGFβR2 WT. Type of test: binding.

Sequence of HIS-TGFβR2 WT (P37173 23-567): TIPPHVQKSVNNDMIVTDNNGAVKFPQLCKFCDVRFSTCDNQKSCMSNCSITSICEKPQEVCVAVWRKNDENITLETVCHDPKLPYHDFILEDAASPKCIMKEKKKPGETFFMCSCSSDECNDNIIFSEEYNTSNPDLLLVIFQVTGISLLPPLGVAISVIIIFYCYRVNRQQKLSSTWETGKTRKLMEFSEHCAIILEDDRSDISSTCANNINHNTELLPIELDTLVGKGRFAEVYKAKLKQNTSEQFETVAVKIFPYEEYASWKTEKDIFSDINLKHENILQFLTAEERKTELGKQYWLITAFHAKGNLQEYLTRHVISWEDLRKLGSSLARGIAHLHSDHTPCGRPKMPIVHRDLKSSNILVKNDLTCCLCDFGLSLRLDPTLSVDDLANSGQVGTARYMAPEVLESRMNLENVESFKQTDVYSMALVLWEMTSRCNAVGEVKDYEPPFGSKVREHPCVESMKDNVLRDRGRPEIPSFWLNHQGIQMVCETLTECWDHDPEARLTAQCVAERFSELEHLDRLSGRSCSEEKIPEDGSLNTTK

One may read the IC50 as the midpoint of a concentration-inhibition curve. As to `COc1ccc(-c2c(-c3ccnc(N)c3)[nH]c3cccnc23)cn1` [Example 52, 4-[3-(6-Methoxypyridin-3-yl)-1H-pyrrolo[3,2-b]pyridin-2-yl]pyridin-2-amine], the IC50 turned out to be 0.041 µM at HIS-TGFβR1 T204D (read-out: TGFβR1 (μM) IC50) and 0.45 µM on HIS-TGFβR2 WT.
The corresponding values for `COc1ccc(-c2c(-c3ccnc(NC(=O)C4CC4)c3)[nH]c3cccnc23)cn1` [Example 53, N-{4-[3-(6-Methoxypyridin-3-yl)-1H-pyrrolo[3,2-b]pyridin-2-yl]pyridin-2-yl}cyclopropanecarboxamide] are 0.002 µM and 0.005 µM.
As to `COc1ccc(-c2c(-c3ccnc(NC(C)=O)c3)n(C)c3cccnc23)cn1` [Example 54, N-{4-[3-(6-Methoxypyridin-3-yl)-1-methyl-1H-pyrrolo[3,2-b]pyridin-2-yl]pyridin-2-yl}acetamide], the values for the half-maximal inhibitory concentration (IC50) on HIS-TGFβR1 T204D (read-out: TGFβR1 (μM) IC50) and at HIS-TGFβR2 WT were 0.021 µM and 3.61 µM, respectively.
As for `CC(=O)Nc1cc(-c2[nH]c3nccnc3c2-c2cccc(Cl)n2)ccn1` [Example 55, N-{4-[7-(6-Chloropyridin-2-yl)-5H-pyrrolo[2,3-b]pyrazin-6-yl]pyridin-2-yl}acetamide], the figures for the concentration for half-maximal inhibition (IC50) on HIS-TGFβR1 T204D (read-out: TGFβR1 (μM) IC50) and at HIS-TGFβR2 WT were 0.003 µM and 0.069 µM, respectively.
In the same order, the values of `CNC(=O)c1cc(Cl)nc2c(-c3ccc(OC)nc3)c(-c3ccnc(NC(C)=O)c3)[nH]c12` [Example 56, 5-Chloro-2-(2-acetamidopyridin-4-yl)-3-(6-methoxypyridin-3-yl)-N-methyl-1H-pyrrolo[3,2-b]pyridine-7-carboxamide] are 0.017 µM and 1.1 µM.
Consider `CNC(=O)c1ccnc2c(-c3ccc(OC)nc3)c(-c3ccnc(NC(C)=O)c3)[nH]c12` [Example 57, 2-(2-Acetamidopyridin-4-yl)-3-(6-methoxypyridin-3-yl)-N-methyl-1H-pyrrolo[3,2-b]pyridine-7-carboxamide], for which the half-inhibitory concentration (IC50) is 0.019 µM at HIS-TGFβR1 T204D (read-out: TGFβR1 (μM) IC50) and 0.11 µM at HIS-TGFβR2 WT.
In the same order, the values of `COc1ccc(-c2c(-c3ccnc(NC(C)=O)c3)[nH]c3c(C(=O)NC(CO)CO)cc(Cl)nc23)cn1` [Example 58, 5-Chloro-N-(1,3-dihydroxypropan-2-yl)-2-(2-acetamidopyridin-4-yl)-3-(6-methoxypyridin-3-yl)-1H-pyrrolo[3,2-b]pyridine-7-carboxamide] are 0.017 µM and 9.23 µM.
In the same order, the values of `COc1ccc(-c2c(-c3ccnc(NC(C)=O)c3)[nH]c3c(C(=O)NC(CO)CO)ccnc23)cn1` [Example 59, N-(1,3-Dihydroxypropan-2-yl)-2-(2-acetamidopyridin-4-yl)-3-(6-methoxypyridin-3-yl)-1H-pyrrolo[3,2-b]pyridine-7-carboxamide] are 0.021 µM and 6.37 µM.
As to `CC(=O)Nc1cc(-c2[nH]c3c(C(=O)NC(CO)CO)cc(Cl)nc3c2-c2cccnc2)ccn1` [Example 60, 5-Chloro-N-(1,3-dihydroxypropan-2-yl)-2-(2-acetamidopyridin-4-yl)-3-(pyridin-3-yl)-1H-pyrrolo[3,2-b]pyridine-7-carboxamide], the IC50 was determined as 0.32 µM on HIS-TGFβR1 T204D (read-out: TGFβR1 (μM) IC50) and 6.65 µM on HIS-TGFβR2 WT.
In the same order, the values of `CC(=O)Nc1cc(-c2[nH]c3c(Cl)ccnc3c2-c2ccc(F)cn2)ccn1` [Example 61, N-{4-[7-Chloro-3-(5-fluoropyridin-2-yl)-1H-pyrrolo[3,2-b]pyridin-2-yl]pyridin-2-yl}acetamide] are 0.005 µM and 0.98 µM.
Consider `COc1ccc(-c2c(-c3ccnc(NC(C)=O)c3)[nH]c3c(Cl)ccnc23)nc1` [Example 62, N-{4-[7-Chloro-3-(5-methoxypyridin-2-yl)-1H-pyrrolo[3,2-b]pyridin-2-yl]pyridin-2-yl}acetamide], for which the values for the 50% inhibitory concentration (IC50) at HIS-TGFβR1 T204D (read-out: TGFβR1 (μM) IC50) and on HIS-TGFβR2 WT were 0.009 µM and > 15 µM, respectively.
The corresponding values for `CC(=O)Nc1cc(-c2[nH]c3c(Cl)ccnc3c2-c2ccc(Cl)cn2)ccn1` [Example 63, N-{4-[7-Chloro-3-(5-chloropyridin-2-yl)-1H-pyrrolo[3,2-b]pyridin-2-yl]pyridin-2-yl}acetamide] are 0.019 µM and > 15 µM.
In the same order, the values of `CC(=O)Nc1cc(-c2[nH]c3c(Cl)ccnc3c2-c2cccc(F)n2)ccn1` [Example 64, N-{4-[7-Chloro-3-(6-fluoropyridin-2-yl)-1H-pyrrolo[3,2-b]pyridin-2-yl]pyridin-2-yl}acetamide] are 0.009 µM and 0.3 µM.
In the same order, the values of `COc1cccc(-c2c(-c3ccnc(NC(C)=O)c3)[nH]c3cc(Cl)cnc23)n1` [Example 65, N-{4-[6-Chloro-3-(6-methoxypyridin-2-yl)-1H-pyrrolo[3,2-b]pyridin-2-yl]pyridin-2-yl}acetamide] are 0.01 µM and > 15 µM.
Turning to `CC(=O)Nc1cc(-c2[nH]c3cc(Cl)cnc3c2-c2cccc(C)n2)ccn1` [Example 66, N-{4-[6-Chloro-3-(6-methylpyridin-2-yl)-1H-pyrrolo[3,2-b]pyridin-2-yl]pyridin-2-yl}acetamide], the 50% inhibitory concentration (IC50) turned out to be 0.002 µM on HIS-TGFβR1 T204D and 3.72 µM on HIS-TGFβR2 WT.
Consider `CC(=O)Nc1cc(-c2[nH]c3cc(Cl)cnc3c2-c2cccc(CO)n2)ccn1` [Example 67, N-(4-{6-Chloro-3-[6-(hydroxymethyl)pyridin-2-yl]-1H-pyrrolo[3,2-b]pyridin-2-yl}pyridin-2-yl)acetamide], for which the IC50 came to 0.037 µM at HIS-TGFβR1 T204D (read-out: TGFβR1 (μM) IC50) and 0.36 µM at HIS-TGFβR2 WT.
In the same order, the values of `CC(=O)Nc1cc(-c2[nH]c3cc(Cl)cnc3c2-c2cccc(NCCO)n2)ccn1` [Example 68, N-[4-(6-Chloro-3-{6-[(2-hydroxyethyl)amino]pyridin-2-yl}-1H-pyrrolo[3,2-b]pyridin-2-yl)pyridin-2-yl]acetamide] are 0.96 µM and > 15 µM.
In the same order, the values of `COC(=O)c1cc(Cl)nc2c(-c3ccc(F)cn3)c(-c3ccnc(NC(C)=O)c3)[nH]c12` [Example 69, Methyl 5-chloro-2-(2-acetamidopyridin-4-yl)-3-(5-fluoropyridin-2-yl)-1H-pyrrolo[3,2-b]pyridine-7-carboxylate] are 0.76 µM and > 15 µM.
The corresponding values for `COC(=O)c1cc(Cl)nc2c(-c3ccc(Cl)cn3)c(-c3ccnc(NC(C)=O)c3)[nH]c12` [Example 70, Methyl 5-chloro-3-(5-chloropyridin-2-yl)-2-(2-acetamidopyridin-4-yl)-1H-pyrrolo[3,2-b]pyridine-7-carboxylate] are 7.73 µM and > 15 µM.
For the compound `COC(=O)c1ccnc2c(-c3ccc(F)cn3)c(-c3ccnc(NC(C)=O)c3)[nH]c12` [Example 71, Methyl 2-(2-acetamidopyridin-4-yl)-3-(5-fluoropyridin-2-yl)-1H-pyrrolo[3,2-b]pyridine-7-carboxylate], the half-inhibitory concentration (IC50) came to 0.27 µM on HIS-TGFβR1 T204D (read-out: TGFβR1 (μM) IC50) and 4.38 µM on HIS-TGFβR2 WT.
The corresponding values for `O=C(CO)Nc1cc(-c2[nH]c3cc(Cl)cnc3c2-c2ccc(F)cn2)ccn1` [Example 72, N-{4-[6-Chloro-3-(5-fluoropyridin-2-yl)-1H-pyrrolo[3,2-b]pyridin-2-yl]pyridin-2-yl}-2-hydroxyacetamide] are 0.008 µM and 1.55 µM.
In the same order, the values of `C[C@H](O)C(=O)Nc1cc(-c2[nH]c3cc(Cl)cnc3c2-c2ccc(F)cn2)ccn1` [Example 73] are 0.019 µM and 15.5 µM.
